Laboratory results: PubChem BioAssay (NCI)
Values joined by “and” are separate entries in the source; they are usually repeats but may differ in a detail not shown here. Identical values can stand only once.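 Results reflect a 48-hour exposure of cells in 96-well plates to compound at five concentrations. The concentration for 50% growth inhibition is given as GI50. TGI is the concentration that stops growth completely.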

Assays:
Test in all cases: NCI tumour cell line growth inhibition, 48 h
786-0 renal = test system: 786-0 renal
A498 renal = test system: A498 renal
DU-145 prostate = test system: DU-145 prostate
EKVX NSCLC = test system: EKVX NSCLC
NCI-H23 lung = test system: NCI-H23 lung
NCI-H460 lung = test system: NCI-H460 lung
NCI-H522 lung = test system: NCI-H522 lung
OVCAR-3 ovarian = test system: OVCAR-3 ovarian
OVCAR-5 ovarian = test system: OVCAR-5 ovarian
P388/ADR leukemia = test system: P388/ADR leukemia
PC-3 prostate = test system: PC-3 prostate
SF-539 CNS = test system: SF-539 CNS
SN12C renal = test system: SN12C renal
TK-10 renal = test system: TK-10 renal
XF 498 CNS = test system: XF 498 CNS

Which TGI (786-0 renal) does the source give for `COc1ccc2c(c1)c1c(C)c3cnccc3c(C)c1n2CCCN` here?
Its TGI is 634 nM.

What about the GI50 (A498 renal) of the same compound?
The GI50 was 317 nM.

What about the TGI (A498 renal) of the same compound?
The TGI was 856 nM and 885 nM.

What about the TGI (DU-145 prostate) of the same compound?
Its TGI is 389 nM.

And the GI50 (EKVX NSCLC)?
The GI50 was 106 nM.

And the TGI (EKVX NSCLC)?
Its TGI is 771 nM and 405 nM.

What about the TGI (NCI-H23 lung) of the same compound?
Its TGI is 601 nM.

What about the GI50 (NCI-H460 lung) of the same compound?
Its GI50 is 19.9 nM.

What about the TGI (NCI-H460 lung) of the same compound?
The TGI was 282 nM and 135 nM.

And the GI50 (NCI-H522 lung)?
The GI50 was 85.3 nM.

And the TGI (NCI-H522 lung)?
Its TGI is 763 nM and 242 nM.

What about the GI50 (OVCAR-3 ovarian) of the same compound?
Its GI50 is 119 nM.

What about the TGI (OVCAR-3 ovarian) of the same compound?
Its TGI is 1180 nM and 495 nM.

And the GI50 (OVCAR-5 ovarian)?
Its GI50 is 94.6 nM.

And the TGI (OVCAR-5 ovarian)?
Its TGI is 1120 nM and 542 nM.

And the TGI (P388/ADR leukemia)?
Its TGI is 725 nM.

What about the TGI (PC-3 prostate) of the same compound?
Its TGI is 302 nM.

What about the GI50 (SF-539 CNS) of the same compound?
The GI50 was 175 nM.

What about the TGI (SF-539 CNS) of the same compound?
Its TGI is 855 nM and 421 nM.

And the GI50 (SN12C renal)?
The GI50 was 170 nM.

What about the TGI (SN12C renal) of the same compound?
The TGI was 916 nM and 1010 nM.

And the TGI (TK-10 renal)?
The TGI was 2750 nM.

And the TGI (XF 498 CNS)?
The TGI was 942 nM.
